In patent US20050009840A1 (SUGEN, INC., priority 2003, published 2005):

Biological target: T1, Met kinase domain (GST fusion protein) (Homo sapiens, UniProt P08581)
T1 construct: Purified GST fusion protein containing the Met kinase domain
Experiment: Met transphosphorylation assay (ELISA, poly(glu-tyr) substrate);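 note: Cell-free ELISA with plate-bound poly(Glu:Tyr 4:1) phosphorylated by GST-fused Met kinase domain plus ATP and Mn2+, phosphotyrosine detected by anti-phosphotyrosine antibody with HRP and ABTS read-out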
Assay type: biochemical
Details: read-out: Met IC50

T1 sequence (P08581 1078-1345 limits assumed): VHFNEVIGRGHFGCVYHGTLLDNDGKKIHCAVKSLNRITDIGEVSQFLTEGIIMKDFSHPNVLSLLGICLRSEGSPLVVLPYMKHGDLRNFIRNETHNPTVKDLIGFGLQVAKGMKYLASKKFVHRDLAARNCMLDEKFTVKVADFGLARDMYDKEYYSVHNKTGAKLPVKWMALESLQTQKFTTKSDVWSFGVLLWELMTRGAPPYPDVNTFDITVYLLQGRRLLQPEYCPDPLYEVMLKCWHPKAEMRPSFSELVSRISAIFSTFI

Row | SMILES | IC50 [µM]
1 | Nc1ncc(-c2ccccc2OC(F)(F)F)cc1OCc1c(Cl)cccc1Cl [Example I-29, 3-(2,6-Dichloro-benzyloxy)-5-(2-trifluoromethoxy-phenyl)-pyridin-2-ylamine] | > 20
2 | Cc1csc(-c2cnc(N)c(OCc3c(Cl)cccc3Cl)c2)c1 [Example I-30, 3-(2,6-Dichloro-benzyloxy)-5-(4-methyl-thiophen-2-yl)-pyridin-2-ylamine] | 3.5
3 | Nc1ncc(-c2ccccc2OCc2ccccc2)cc1OCc1c(Cl)cccc1Cl [Example I-31, 5-(2-Benzyloxy-phenyl)-3-(2,6-dichloro-benzyloxy)-pyridin-2-ylamine] | > 20
4 | Nc1ncc(-c2ccc(C(=O)O)cc2)cc1OCc1c(Cl)cccc1Cl [Example I-35, 4-[6-Amino-5-(2,6-dichloro-benzyloxy)-pyridin-3-yl]-benzoic acid] | 12.8
5 | CCN(CC)CCNC(=O)c1ccc(-c2cnc(N)c(OCc3c(Cl)cccc3Cl)c2)cc1 [Example I-36, 4-[6-Amino-5-(2,6-dichloro-benzyloxy)-pyridin-3-yl]-N-(2-diethylamino-ethyl)-benzamide] | 0.99
6 | CCN(CC)CCCNC(=O)c1ccc(-c2cnc(N)c(OCc3c(Cl)cccc3Cl)c2)cc1 [Example I-37, 4-[6-Amino-5-(2,6-dichloro-benzyloxy)-pyridin-3-yl]-N-(3-diethylamino-propyl)-benzamide] | 0.82
7 | Nc1ncc(-c2ccc(C(=O)N3CCC(CCO)CC3)cc2)cc1OCc1c(Cl)cccc1Cl [Example I-42, {4-(6-Amino-5-(2,6-dichloro-benzyloxy)-pyridin-3-yl]-phenyl}-[4-(2-hydroxy-ethyl)-piperidin-1-yl]-methanone] | 0.56
8 | Nc1ncc(-c2ccc(C(=O)N3CCN(C4CC4)CC3)cc2)cc1OCc1c(Cl)cccc1Cl [Example I-48, {4-[6-Amino-5-(2,6-dichloro-benzyloxy)-pyridin-3-yl]-phenyl}-(4-cyclopropyl-piperazin-1-yl)-methanone] | 1.67
9 | Nc1ncc(-c2ccc(C(=O)N3CCC[C@@H]3CNCC3CC3)cc2)cc1OCc1c(Cl)cccc1Cl [Example I-49, {4-[6-Amino-5-(2,6-dichloro-benzyloxy)-pyridin-3-yl]-phenyl}-{(2R)-2-[(cyclopropylmethyl-amino)-methyl]-pyrrolidin-1-yl}-methanone] | 0.37
10 | Nc1ncc(-c2ccc(C(=O)N(CC3CC3)C[C@H]3CCCN3)cc2)cc1OCc1c(Cl)cccc1Cl [Example I-50, 4-[6-Amino-5-(2,6-dichloro-benzyloxy)-pyridin-3-yl]-N-cyclopropylmethyl-N-(2R)-pyrrolidin-2-ylmethyl-benzamide] | 0.29
11 | Nc1ncc(-c2ccc(OCC(=O)N3CCC[C@@H]3CN3CCCC3)cc2)cc1OCc1c(Cl)cccc1Cl [Example I-56, 2-{4-[6-Amino-5-(2,6-dichloro-benzyloxy)-pyridin-3-yl]-phenoxy}-1-[(2R)-2-pyrrolidin-1-ylmethyl-pyrrolidin-1-yl]-ethanone] | 0.53
12 | Nc1ncc(-c2ccc(OCC(=O)N3CCC[C@H]3CN3CCCC3)cc2)cc1OCc1c(Cl)cccc1Cl [Example I-57, 2-{4-[6-Amino-5-(2,6-dichloro-benzyloxy)-pyridin-3-yl]-phenoxy}-1-[(2S)-2-pyrrolidin-1-ylmethyl-pyrrolidin-1-yl]-ethanone] | 0.5
13 | CN1CC=C(c2c[nH]c3ccc(-c4cnc(N)c(OCc5c(Cl)cccc5Cl)c4)cc23)CC1 [Example I-59, 3-(2,6-Dichloro-benzyloxy)-5-[3-(1-methyl-1,2,3,6-tetrahydro-pyridin-4-yl)-1H-indol-5-yl]-pyridin-2-ylamine] | 1.57
14 | CC(C)(C)OC(=O)N[C@@H]1CCN(Cc2c[nH]c3ccc(-c4cnc(N)c(OCc5c(Cl)cccc5Cl)c4)cc23)C1 [Example I-65] | 6.3
15 | CC(=O)N[C@@H]1CCN(Cc2c[nH]c3ccc(-c4cnc(N)c(OCc5c(Cl)cccc5Cl)c4)cc23)C1 [Example I-67, N-(1-{5-[6-Amino-5-(2,6-dichloro-benzyloxy)-pyridin-3-yl]-1H-indol-3-ylmethyl}-(3R)-pyrrolidin-3-yl)-acetamide] | 1.79
16 | CC(=O)N1CCN(Cc2c[nH]c3ccc(-c4cnc(N)c(OCc5c(Cl)cccc5Cl)c4)cc23)CC1 [Example I-68, 1-(4-{5-[6-Amino-5-(2,6-dichloro-benzyloxy)-pyridin-3-yl]-1H-indol-3-ylmethyl}-piperazin-1-yl)-ethanone] | 2.18

The remaining lines, values ahead:

Row | IC50 [µM] | SMILES
17 | 8.5 | Nc1ncc(-c2ccc3c(c2)OCO3)cc1OCc1c(Cl)cccc1Cl [Example I-28, 5-Benzo[1,3]dioxol-5-yl-3-(2,6-dichloro-benzyloxy)-pyridin-2-ylamine]
18 | 4.01 | COc1cccc(-c2cnc(N)c(OCc3c(Cl)cccc3Cl)c2)c1 [Example I-32, 3-(2,6-Dichloro-benzyloxy)-5-(3-methoxy-phenyl)-pyridin-2-ylamine]
19 | 7.5 | Nc1ncc(-c2cc3ccccc3[nH]2)cc1OCc1c(Cl)cccc1Cl [Example I-33, 3-(2,6-Dichloro-benzyloxy)-5-(1H-indol-2-yl)-pyridin-2-ylamine]
20 | 13.5 | Nc1ncc(-c2ccc(OCc3ccccc3)c(F)c2)cc1OCc1c(Cl)cccc1Cl [Example I-34, 5-(4-Benzyloxy-3-fluoro-phenyl)-3-(2,6-dichloro-benzyloxy)-pyridin-2-ylamine]
21 | 1.02 | CN1CCN(C(=O)c2ccc(-c3cnc(N)c(OCc4c(Cl)cccc4Cl)c3)cc2)CC1 [Example I-38, {4-[6-Amino-5-(2,6-dichloro-benzyloxy)-pyridin-3-yl]-phenyl}-(4-methyl-piperazin-1-yl)-methanone]
22 | 0.47 | CN(C)[C@H]1CCN(C(=O)c2ccc(-c3cnc(N)c(OCc4c(Cl)cccc4Cl)c3)cc2)C1 [Example I-43, {4-[6-Amino-5-(2,6-dichloro-benzyloxy)-pyridin-3-yl]-phenyl}-[(3S)-3-dimethylamino-pyrrolidin-1-yl]-methanone]
23 | 0.65 | CN(C)[C@@H]1CCN(C(=O)c2ccc(-c3cnc(N)c(OCc4c(Cl)cccc4Cl)c3)cc2)C1 [Example I-44, {4-[6-Amino-5-(2,6-dichloro-benzyloxy)-pyridin-3-yl]-phenyl}-[(3R)-3-dimethylamino-pyrrolidin-1-yl]-methanone]
24 | 0.2 | Nc1ncc(-c2ccc(C(=O)NCC(O)CN3CCCC3)cc2)cc1OCc1c(Cl)cccc1Cl (stereo not shown) [Example I-46, 4-[6-Amino-5-(2,6-dichloro-benzyloxy)-pyridin-3-yl]-N-(2-hydroxy-3-pyrrolidin-1-yl-propyl)-benzamide]
25 | 0.42 | Nc1ncc(-c2ccc(C(=O)N3CCC[C@H]3CN3CCCC(F)C3)cc2)cc1OCc1c(Cl)cccc1Cl (stereo partly drawn) [Example I-47, {4-[6-Amino-5-(2,6-dichloro-benzyloxy)-pyridin-3-yl]-phenyl}-[(2S)-2-(3-fluoro-piperidin-1-ylmethyl)-pyrrolidin-1-yl]-methanone]
26 | 0.71 | CN(CC(O)CN1CCCC1)C(=O)c1ccc(-c2cnc(N)c(OCc3c(Cl)cccc3Cl)c2)cc1 (stereo not shown) [Example I-51, 4-[6-Amino-5-(2,6-dichloro-benzyloxy)-pyridin-3-yl]-N-(2-hydroxy-3-pyrrolidin-1-yl-propyl)-N-methyl-benzamide]
27 | 0.53 | Nc1ncc(-c2ccc(C(=O)N3CCC[C@H]3CN3CC[C@@H](O)C3)cc2)cc1OCc1c(Cl)cccc1Cl [Example I-52, {4-[6-Amino-5-(2,6-dichloro-benzyloxy)-pyridin-3-yl]-phenyl}-{(2S)-2-[(3R)-3-hydroxy-pyrrolidin-1-ylmethyl]-pyrrolidin-1-yl}-methanone]
28 | 16 | Nc1ncc(-c2cccc(C(=O)O)c2)cc1OCc1c(Cl)cccc1Cl [Example I-53, 3-[6-Amino-5-(2,6-dichloro-benzyloxy)-pyridin-3-yl]-benzoic acid]
29 | 2.5 | Nc1ncc(-c2cccc(C(=O)N3CCC[C@@H]3CN3CCCC3)c2)cc1OCc1c(Cl)cccc1Cl [Example I-54, {3-(6-Amino-5-(2,6-dichloro-benzyloxy)-pyridin-3-yl]-phenyl}-[(2R)-2-pyrrolidin-1-ylmethyl-pyrrolidin-1-yl]-methanone]
30 | 2.41 | Nc1ncc(-c2ccc(OCC(=O)O)cc2)cc1OCc1c(Cl)cccc1Cl [Example I-55, {4-[6-Amino-5-(2,6-dichloro-benzyloxy)-pyridin-3-yl]-phenoxy}-acetic acid]
31 | 4.3 | Nc1ncc(-c2ccc3[nH]ccc3c2)cc1OCc1c(Cl)cccc1Cl [Example I-58, 3-(2,6-Dichloro-benzyloxy)-5-(1H-indol-5-yl)-pyridin-2-ylamine]
32 | 3.04 | CN1CCC(c2c[nH]c3ccc(-c4cnc(N)c(OCc5c(Cl)cccc5Cl)c4)cc23)CC1 [Example I-60, 3-(2,6-Dichloro-benzyloxy)-5-[3-(1-methyl-piperidin-4-yl)-1H-indol-5-yl]-pyridin-2-ylamine]
33 | 1.19 | Nc1ncc(-c2ccc3[nH]cc(CN4CCOCC4)c3c2)cc1OCc1c(Cl)cccc1Cl [Example I-61, 3-(2,6-Dichloro-benzyloxy)-5-(3-morpholin-4-ylmethyl-1H-indol-5-yl)-pyridin-2-ylamine]
34 | 1.41 | Nc1ncc(-c2ccc3[nH]cc(CN4CCCCC4)c3c2)cc1OCc1c(Cl)cccc1Cl [Example I-62, 3-(2,6-Dichloro-benzyloxy)-5-(3-piperidin-1-ylmethyl-1H-indol-5-yl)-pyridin-2-ylamine]
35 | 1.34 | Nc1ncc(-c2ccc3[nH]cc(CN4CCCC4)c3c2)cc1OCc1c(Cl)cccc1Cl [Example I-63, 3-(2,6-Dichloro-benzyloxy)-5-(3-pyrrolidin-1-ylmethyl-1H-indol-5-yl)-pyridin-2-ylamine]
36 | 3.23 | CCN(CC)Cc1c[nH]c2ccc(-c3cnc(N)c(OCc4c(Cl)cccc4Cl)c3)cc12 [Example I-64, 3-(2,6-Dichloro-benzyloxy)-5-(3-diethylaminomethyl-1H-indol-5-yl)-pyridin-2-ylamine]
37 | > 20 | C[C@@H]1CN(Cc2c[nH]c3ccc(-c4cnc(N)c(OCc5c(Cl)cccc5Cl)c4)cc23)C[C@H](C)O1 [Example I-66, 3-(2,6-Dichloro-benzyloxy)-5-[3-(2,6-dimethyl-morpholin-4-ylmethyl)-1H-indol-5-yl]-pyridin-2-ylamine]
